Measurements taken from patent US20170071204A1, “ACTIVE COMPOUND COMBINATIONS HAVING IN[…]” (priority 2014, published 2017).

Columns and labels:
Format in all cases: in vivo
[1] = test system: two spotted spidermite (Tetranychus urticae); test: Tetranychus urticae spray test OP-resistant (French bean leaf disks); conditions: for Efficacy in % after 2 d: mortality after 2 d
Description: (§1) The expected activity for a given combination of two active compounds can be calculated according to S. R. Colby, Weeds 15 (1967), 20-22 as follows:
(§2) • X is the kill rate, expressed in % of the untreated control, when active compound A is applied at an application rate of m g/ha or at a concentration of m ppm, • Y is the kill rate, expressed in % of the untreated control, when active compound B is applied at an application rate of n g/ha or at a concentration of n ppm and • E is the kill rate, expressed in % of the untreated control, when active compounds A and B is applied at application rates of m and n g/ha or at a concentration of m and n ppm, then
(§3) If the observed insecticidal efficacy of the combination is higher than the one calculated as “E”, then the combination of the two compounds is more than additive, i.e., there is a synergistic effect.
(§4) Solvent: 78.0 parts by weight acetone • 1.5 parts by weight dimethylformamide Emulsifier: alkylarylpolyglycol ether
(§5) To produce a suitable preparation of active compound, 1 part by weight of active compound is mixed with the stated amount of solvents and is diluted with water, containing an emulsifier concentration of 1000 ppm, to the desired concentration. To produce a suitable preparation of a spore suspension the spores are diluted with emulsifier containing water to the desired concentration. Further test concentrations are prepared by dilution with emulsifier containing water.
French bean (Phaseolus vulgaris) leaf disks which are heavily infested with all stages of the two spotted spidermite (Tetranychus urticae), are sprayed with a preparation of the active ingredient of the desired concentration.
After the specified period of time, mortality in % is determined. 100% means all spider mites have been killed and 0% means none of the spider mites have been killed. The mortality values determined thus are recalculated using the Colby-formula (see sheet 1).

[2] = test system: green peach aphid (Myzus persicae); test: Myzus persicae spray test (Chinese cabbage leaf disks); conditions: for Efficacy in % after 6 d: mortality after 6 d; for Efficacy in % after 1 d: mortality after 1 d
Description: as §1, §2, §3, §4, §5
Chinese cabbage (Brassica pekinensis) leaf disks infected with all instars of the green peach aphid (Myzus persicae), are sprayed with a preparation of the active ingredient of the desired concentration.
After the specified period of time, mortality in % is determined. 100% means all aphids have been killed; 0% means none of the aphids have been killed. The mortality values determined thus are recalculated using the Colby-formula (see sheet 1).

[3] = test system: mustard beetle larvae (Phaedon cochleariae); test: Phaedon cochleariae spray test (Chinese cabbage leaf disks); conditions: mortality after 6 d
Description: as §1, §2, §3
Solvent: 78.0 parts by weight of acetone • • 1.5 parts by weight of dimethylformamide Emulsifier: alkylarylpolyglycol ether
as §5
Chinese cabbage (Brassica pekinensis) leaf disks are sprayed with a preparation of the active ingredient of the desired concentration. Once dry, the leaf disks are infested with mustard beetle larvae (Phaedon cochleariae).
After the specified period of time, mortality in % is determined. 100% means all beetle larvae have been killed and 0% means none of the beetle larvae have been killed. The mortality values determined thus are recalculated using the Colby-formula (see sheet 1).

O=C(NC(=O)c1c(F)cccc1F)Nc1cc(Cl)c(OC(F)(F)C(F)C(F)(F)F)cc1Cl (centres unmarked) [Lufenuron]
Efficacy in % after 2 d ([1]; 20 g ai/ha): 0%

Milbemectin
Efficacy in % after 6 d ([2]; 4 g ai/ha): 0%

N#CCNC(=O)c1cnccc1C(F)(F)F [Flonicamid]
Efficacy in % after 2 d ([1]; 4 g ai/ha): 0%

O=C1C=C(N(Cc2ccc(Cl)nc2)CC(F)F)CO1 [Flupyradifurone]
Efficacy in % after 2 d ([1]; 0.8 g ai/ha): 0% | Efficacy in % after 2 d ([1]; 4 g ai/ha): 0%

Abamectin
Efficacy in % after 6 d ([3]; 0.8 g ai/ha): 0%

CCOP(=S)(OCC)Oc1nc(Cl)c(Cl)cc1Cl [Chlorpyrifos]
Efficacy in % after 6 d ([1]; 4 g ai/ha, mortality after 6 d): 0% | Efficacy in % after 2 d ([1]; 20 g ai/ha): 0%

O=C(/N=c1\ccccn1Cc1ccc(Cl)nc1)C(F)(F)F [N-[(2E)-1-[(6-chloropyridin-3-yl)methyl]pyridin-2(1H)-ylidene]-2,2,2-trifluoroacetamide]
Efficacy in % after 6 d ([3]; 100 g ai/ha): 0%

Lepimectin
Efficacy in % after 1 d ([2]; 4 g ai/ha): 0% | Efficacy in % after 6 d ([2]; 4 g ai/ha): 0% | Efficacy in % after 1 d ([2]; 20 g ai/ha): 0% | Efficacy in % after 6 d ([2]; 20 g ai/ha): 0%

O=C(NC(=O)c1c(F)cccc1F)Nc1ccc(OC(F)(F)C(F)OC(F)(F)F)c(Cl)c1 (centres unmarked) [Novaluron]
Efficacy in % after 6 d ([3]; 100 g ai/ha): 0%
